For 13 compounds, inhibition, GI50 and IC50 results are on record in publication PMC9848300, “Discovery of novel enasidenib analogues targeting inhibition of mutant isocitrate dehydrogenase 2 as antileukaemic agents” (Journal of Enzyme Inhibition and Medicinal Chemistry, 2023).

One experiment relates to MDA-MB-468. Kind of experiment: NCI 60 antitumor screening (single dose / five doses). In kind it is cell-based. The conditions noted are these: Homo sapiens; for inhibition at 10 µM: MDA-MB-468 (breast cancer), single dose 10 μM, read-out: Growth inhibition percentage (GI %); for GI50: MDA-MB-468, five doses (0.01–100 μM), read-out: GI50.
The next experiment addresses T1, IDH2^R140Q (Homo sapiens, UniProt P48735, R140Q).
T1 sequence (P48735 40-452 R140Q): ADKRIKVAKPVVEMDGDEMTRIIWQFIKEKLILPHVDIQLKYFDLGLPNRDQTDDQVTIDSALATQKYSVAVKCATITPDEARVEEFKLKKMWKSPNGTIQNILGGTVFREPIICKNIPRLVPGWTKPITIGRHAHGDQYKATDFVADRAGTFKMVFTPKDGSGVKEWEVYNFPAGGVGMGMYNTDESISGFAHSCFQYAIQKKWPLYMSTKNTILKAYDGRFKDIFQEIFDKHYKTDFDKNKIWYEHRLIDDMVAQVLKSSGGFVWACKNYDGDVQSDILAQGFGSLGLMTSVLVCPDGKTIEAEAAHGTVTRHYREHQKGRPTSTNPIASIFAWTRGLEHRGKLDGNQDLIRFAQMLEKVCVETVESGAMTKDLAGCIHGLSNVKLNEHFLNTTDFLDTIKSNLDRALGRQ
Kind of experiment: biochemical.

The test system of a further experiment is SF-295. Kind of experiment: NCI 60 antitumor screening (single dose / five doses). The conditions noted are these: Homo sapiens; for inhibition at 10 µM: SF-295 (CNS cancer), single dose 10 μM, read-out: Growth inhibition percentage (GI %); for GI50: SF-295, five doses (0.01–100 μM), read-out: GI50. The experiment is classed as cell-based.
In a further experiment the test system is MOLT-4. The description is as above. The experiment is classed as cell-based. The conditions noted are these: Homo sapiens; for inhibition at 10 µM: MOLT-4 (leukaemia), single dose 10 μM, read-out: Growth inhibition percentage (GI %); for GI50: MOLT-4, five doses (0.01–100 μM), read-out: GI50.
A further experiment concerns CCRF-CEM. Described as above. In kind it is cell-based. To be noted: Homo sapiens; for inhibition at 10 µM: CCRF-CEM (leukaemia), single dose 10 μM, read-out: Growth inhibition percentage (GI %); for GI50: CCRF-CEM, five doses (0.01–100 μM), read-out: GI50.
In a further experiment the test system is SK-MEL-5. Described as above. In kind it is cell-based. The conditions noted are these: Homo sapiens; for inhibition at 10 µM: SK-MEL-5 (melanoma), single dose 10 μM, read-out: Growth inhibition percentage (GI %); for GI50: SK-MEL-5, five doses (0.01–100 μM), read-out: GI50.
The target of the next experiment is T2, wild type IDH2 (Homo sapiens, UniProt P48735).
T2 sequence (P48735 40-452): T1 sequence (P48735 40-452 R140Q) with Q101R
Kind of experiment: IDH2 enzyme inhibition assay (wild type IDH Assay Kit).

Numbering of substitutions follows the chain as printed.

Take `Oc1ccccc1/C=N/Nc1nc(N/N=C/c2ccccc2O)nc(N2CCOCC2)n1` [compound 6a, 2-[(1e)-(2-{4-[(E)-2-[(2-Hydroxyphenyl)methylidene]hydrazin-1-yl]-6-(morpholin-4-yl)-1,3,5-triazin-2-yl}hydrazin-1-ylidene)methyl]phenol]: the inhibition (usually the relative decrease from the control value, in per cent) at 10 µM amounted to 60.8% in the experiment on MDA-MB-468; 80.4% with SF-295; 54.9% in the experiment on MOLT-4; 57.6% in the experiment with CCRF-CEM; 34.2% in the experiment on SK-MEL-5. The concentration for 50% growth inhibition (GI50) (commonly the concentration at which growth is held to half of that of the control) is 4.11 µM with MDA-MB-468; 7.67 µM in the experiment on SF-295; 1.55 µM with MOLT-4; 0.53 µM with CCRF-CEM; 5.86 µM in the experiment on SK-MEL-5. It took 0.373 ± 0.0182 µM to reach half-maximal inhibition against IDH2^R140Q (IC50).
In the case of `Clc1cccc(/C=N/Nc2nc(N/N=C/c3cccc(Cl)c3)nc(N3CCOCC3)n2)c1` [compound 6d, 2,4-Bis[(E)-2-[(3-chlorophenyl)methylidene]hydrazin-1-yl]-6-(morpholin-4-yl)-1,3,5-triazine], the inhibition at 10 µM turned out to be 69.2% with MDA-MB-468; 42.4% in the experiment with SF-295; 94% in the experiment on MOLT-4; 75.2% with CCRF-CEM; 55.9% with SK-MEL-5. Besides, the GI50 stood at 1.65 µM with MDA-MB-468; 4.13 µM in the experiment on SF-295; 1.49 µM with MOLT-4; 1.34 µM with CCRF-CEM; 1.72 µM in the experiment on SK-MEL-5. Besides, the IC50 (in general, the concentration at which inhibition is half-maximal) at IDH2^R140Q was found to be 1.87 ± 0.0912 µM.
Regarding `Fc1cccc(/C=N/Nc2nc(N/N=C/c3cccc(F)c3)nc(N3CCOCC3)n2)c1` [compound 6e, 2,4-Bis[(E)-2-[(3-Fluorophenyl)methylidene]hydrazin-1-yl]-6-(morpholin-4-yl)-1,3,5-triazine], the inhibition at 10 µM in the experiment on MDA-MB-468 is 11.5%; with SF-295, -8.45%; in the experiment on MOLT-4, 33.9%; in the experiment on CCRF-CEM it was 32.8%; with SK-MEL-5, 27.9%. The IC50 on IDH2^R140Q worked out at 0.067 ± 0.00327 µM; against wild type IDH2, 2.3 ± 0.09 µM.
In the case of `CN(C)c1ccc(/C=N/Nc2nc(N/N=C/c3ccc(N(C)C)cc3)nc(N3CCOCC3)n2)cc1` [compound 6g, 4-[(1e)-(2-{4-[(E)-2-{[4-(dimethylamino)phenyl]methylidene}hydrazin-1-yl]-6-(morpholin-4-yl)-1,3,5-triazin-2-yl}hydrazin-1-ylidene)methyl]-N,N-dimethylaniline], the inhibition at 10 µM with MDA-MB-468 is 2.17%; with SF-295, 86.2%; in the experiment with MOLT-4 it was 3.27%; in the experiment on CCRF-CEM, 86.7%; in the experiment with SK-MEL-5, -0.23%. This compound displayed an IC50 against IDH2^R140Q of 0.336 ± 0.0164 µM.
For `Fc1cccc(Cl)c1/C=N/Nc1nc(N/N=C/c2c(F)cccc2Cl)nc(N2CCOCC2)n1` [compound 6l, 2,4-Bis[(E)-2-[(2-Chloro-6-fluorophenyl)methylidene]hydrazin-1-yl]-6-(morpholin-4-yl)-1,3,5-triazine], the inhibition at 10 µM with MDA-MB-468 turned out to be 24.6%; with SF-295 it was 49.5%; in the experiment with MOLT-4 it was 18.2%; in the experiment on CCRF-CEM, 18.9%; in the experiment with SK-MEL-5, 44.9%. Besides, the figures for the IC50 on IDH2^R140Q and on wild type IDH2 were 0.158 ± 0.00772 µM and 3.44 ± 0.13 µM, respectively.
`Oc1ccccc1/C=N/Nc1nc(N/N=C/c2ccccc2O)nc(N2CCCCC2)n1` [compound 7a, 2-[(1e)-(2-{4-[(E)-2-[(2-Hydroxyphenyl)methylidene]hydrazin-1-yl]-6-(piperidin-1-yl)-1,3,5-triazin-2-yl}hydrazin-1-ylidene)methyl] phenol]: the inhibition at 10 µM worked out at 36.2% with MDA-MB-468; 47.4% in the experiment on SF-295; 59.1% in the experiment with MOLT-4; 78.3% in the experiment on CCRF-CEM; 25.6% in the experiment with SK-MEL-5. The half-inhibitory concentration (IC50) against IDH2^R140Q came to 0.13 ± 0.00635 µM; at wild type IDH2 it was 5.42 ± 0.21 µM.
As to `Brc1cccc(/C=N/Nc2nc(N/N=C/c3cccc(Br)c3)nc(N3CCCCC3)n2)c1` [compound 7c, 2,4-Bis[(E)-2-[(3-Bromophenyl)methylidene]hydrazin-1-yl]-6-(piperidin-1-yl)-1,3,5-triazine], the inhibition at 10 µM in the experiment on MDA-MB-468 was determined as 9.99%; with SF-295, 2.91%; with MOLT-4, 31.6%; with CCRF-CEM, 18.7%; in the experiment with SK-MEL-5 it was 28.6%. The half-maximal inhibitory concentration (IC50) at IDH2^R140Q was found to be 0.0889 ± 0.00434 µM; at wild type IDH2, 3.13 ± 0.12 µM.
For the compound `Clc1cccc(/C=N/Nc2nc(N/N=C/c3cccc(Cl)c3)nc(N3CCCCC3)n2)c1` [compound 7d, 2,4-Bis[(E)-2-[(3-Chlorophenyl)methylidene]hydrazin-1-yl]-6-(piperidin-1-yl)-1,3,5-triazine], the inhibition at 10 µM in the experiment with MDA-MB-468 amounted to 23.7%; with SF-295 it was 7.02%; with MOLT-4, 31.3%; in the experiment on CCRF-CEM, 25%; in the experiment with SK-MEL-5 it was 19.4%. In addition, on IDH2^R140Q, the IC50 turned out to be 0.37 ± 0.018 µM.
For the compound `Fc1cccc(/C=N/Nc2nc(N/N=C/c3cccc(F)c3)nc(N3CCCCC3)n2)c1` [compound 7e, 2,4-Bis[(E)-2-[(3-Fluorophenyl)methylidene]hydrazin-1-yl]-6-(piperidin-1-yl)-1,3,5-triazine], the inhibition at 10 µM in the experiment on MDA-MB-468 is 9.17%; in the experiment with SF-295 it was 15.6%; in the experiment with MOLT-4 it was 40.4%; in the experiment with CCRF-CEM it was 41.3%; in the experiment on SK-MEL-5, 32.1%. In addition, the concentration for half-maximal inhibition (IC50) stood at 0.176 ± 0.0086 µM against IDH2^R140Q and 5.07 ± 0.2 µM against wild type IDH2.
Turning to `CN(C)c1ccc(/C=N/Nc2nc(N/N=C/c3ccc(N(C)C)cc3)nc(N3CCCCC3)n2)cc1` [compound 7g, 4-[(1e)-(2-{4-[(E)-2-{[4-(dimethylamino)phenyl]methylidene}chydrazin-1-yl]-6-(piperidin-1-yl)-1,3,5-triazin-2-yl}hydrazin-1-ylidene)methyl]-N,N-dimethylaniline], the inhibition at 10 µM in the experiment on MDA-MB-468 is 63.7%; in the experiment with SF-295, -6.74%; with MOLT-4, 88%; in the experiment with CCRF-CEM it was 74.2%; with SK-MEL-5 it was 13.3%. Besides, the concentration for 50% growth inhibition (GI50) amounted to 1.64 µM with MDA-MB-468; 1.96 µM in the experiment with SF-295; 2.87 µM with MOLT-4; 1.21 µM with CCRF-CEM; 1.73 µM in the experiment with SK-MEL-5. The compound also registered an IC50 on IDH2^R140Q of 0.505 ± 0.0247 µM.
Regarding `Fc1cccc(Cl)c1/C=N/Nc1nc(N/N=C/c2c(F)cccc2Cl)nc(N2CCCCC2)n1` [compound 7l, 2,4-Bis[(E)-2-[(2-Chloro-6-fluorophenyl)methylidene]hydrazin-1-yl]-6-(piperidin-1-yl)-1,3,5-triazine], the inhibition at 10 µM with MDA-MB-468 was 114%; in the experiment with SF-295 it was 97.4%; in the experiment with MOLT-4, 86.3%; with CCRF-CEM, 77.7%; in the experiment on SK-MEL-5, 41%. In addition, the GI50 in the experiment on MDA-MB-468 was determined as 1.86 µM; in the experiment with SF-295 it was 1.01 µM; in the experiment on SK-MEL-5, 1.88 µM. Besides, the IC50 came out at 0.16 ± 0.00781 µM on IDH2^R140Q and 9.5 ± 0.37 µM on wild type IDH2.
As for `COC(=O)C(Cc1ccccc1)Nc1nc(NC(Cc2ccccc2)C(=O)OC)nc(N2CCOCC2)n1` (stereo not shown) [compound 8c, Methyl 2-({4-[(1-methoxy-1-oxo-3-phenylpropan-2-yl)amino]-6-(morpholin-4-yl)-1,3,5-triazin-2-yl}amino)-3-phenylpropanoate], the inhibition at 10 µM was -7.75% in the experiment with MDA-MB-468; -7.74% with SF-295; -1.03% in the experiment with MOLT-4; -4.54% in the experiment on CCRF-CEM; 1.32% in the experiment with SK-MEL-5.
For `O=C(NNc1nc(NNC(=O)c2ccccc2)nc(N2CCOCC2)n1)c1ccccc1` [compound 8d, N'-[4-(morpholin-4-yl)-6-(phenylhydrazido)-1,3,5-triazin-2-yl]benzohydrazide], in that order: -15.1%, -0.06%, -8.9%, -6.05% and 0.18%.
